Values quoted from earlier work in US20150246061A1, “VITAMIN D ANALOGUES FOR THE TREATMENT OF A NEUROLOGICAL DISORDER” (CELUS PHARMACEUTICALS, INC., priority 2012, published 2015).

Details: adult humans, longer treatment periods

Structure (SMILES): C=C1/C(=C\C=C2/CCC[C@]3(C)C([C@@H](C)C/C=C/C(O)(CC)CC)=CC[C@@H]23)C[C@@H](O)C[C@@H]1F [Elocalcitol, elocalcitol]
- daily dose up to which elocalcitol has been shown to be safe: ≤ 150 µg
